In brackets after ≈: the same amount, converted by molar mass. Like-named read-outs stand apart in the source and are kept apart here.
Tests used:
[1] = test system: wild-type A. baumannii ATCC 17978; test: Checkerboard assay; assay type: cell-based, Acinetobacter baumannii; conditions: for MICcombo: antibiotic with dUSTBβP 3 at 8 μg/mL; for MIC: Acinetobacter baumannii, ATCC17978, 18 h, read-out: MICantibiotic
From the text: (§1) Overnight-grown bacterial culture diluted in saline to 0.5 McFarland turbidity was successively diluted 1:50 in MHB to achieve a final concentration of 5 × 10^5 CFU/mL for inoculation. The antibiotic and adjuvant were serially diluted 2-fold along the x-axis and y-axis, respectively, resulting in varying concentrations of both agents in each well. […] Confirmation of turbidity was done using an EMax Plus microplate reader (Molecular Devices, United States) at a wavelength of 590 nm. Wells comprising MHB alone or in the presence of bacterial cells were used as negative or positive controls, respectively. Fractional inhibitory concentration index (FICI) is determined by adding the FICs of both antibiotic and adjuvant. The FIC of the antibiotic is calculated by dividing the MIC of the antibiotic in the presence of the adjuvant by the MIC of the antibiotic alone. Similarly, the FIC of the adjuvant is calculated by dividing the MIC of the adjuvant in the presence of the antibiotic by the MIC of the adjuvant alone.

[2] = test system: MDR P. aeruginosa clinical isolates; test: Resistance phenotype (MICs of antibiotics) of MDR clinical isolates; assay type: cell-based, Pseudomonas aeruginosa; conditions: Pseudomonas aeruginosa
[3] = test system: MDR E. coli clinical isolates; test: as above; assay type: cell-based, Escherichia coli; conditions: Escherichia coli, read-out: MIC
[4] = test system: wild-type P. aeruginosa PAO1; test: microbe, parasite or virus in culture; assay type: cell-based, Pseudomonas aeruginosa; conditions: for MICcombo: antibiotic with dUSTBβP 3 at 8 μg/mL; for MIC: Pseudomonas aeruginosa, read-out: MICantibiotic
From the text: as §1

[5] = test system: MDR E. cloacae clinical isolates; test: Resistance phenotype (MICs of antibiotics) of MDR clinical isolates; assay type: cell-based, Enterobacter cloacae; conditions: Enterobacter cloacae, read-out: MIC
[6] = test system: MDR A. baumannii clinical isolates; test: as above; assay type: cell-based, Acinetobacter baumannii; conditions: Acinetobacter baumannii, read-out: MIC
[7] = test system: wild-type E. coli ATCC 25922; test: microbe, parasite or virus in culture; assay type: cell-based, Escherichia coli; conditions: for MICcombo: antibiotic with dUSTBβP 3 at 8 μg/mL; for MIC: Escherichia coli, ATCC25922, 18 h, read-out: MICantibiotic
Description: The adjuvant activities of dUSTBβPs were evaluated using checkerboard assay as previously described ([Berry et al., 2019]). Overnight-grown bacterial culture diluted in saline to 0.5 McFarland turbidity was successively diluted 1:50 in MHB to achieve a final concentration of 5 × 10^5 CFU/mL for inoculation. The antibiotic and adjuvant were serially diluted 2-fold along the x-axis and y-axis, respectively, resulting in varying concentrations of both agents in each well. Subsequently, the 96-well plate was incubated with equal volumes of bacterial inoculum at 37°C for 18 h. Confirmation of turbidity was done using an EMax Plus microplate reader (Molecular Devices, United States) at a wavelength of 590 nm. Wells comprising MHB alone or in the presence of bacterial cells were used as negative or positive controls, respectively. Fractional inhibitory concentration index (FICI) is determined by adding the FICs of both antibiotic and adjuvant. The FIC of the antibiotic is calculated by dividing the MIC of the antibiotic in the presence of the adjuvant by the MIC of the antibiotic alone. Similarly, the FIC of the adjuvant is calculated by dividing the MIC of the adjuvant in the presence of the antibiotic by the MIC of the adjuvant alone. FICI ≤ 0.5, 0.5 < x ≤ 4, and >4 were deemed synergistic, additive, and antagonistic, respectively ([Meletiadis et al., 2010]).

[8] = test system: MDR K. pneumoniae clinical isolates; test: Resistance phenotype (MICs of antibiotics) of MDR clinical isolates; assay type: cell-based, Klebsiella pneumoniae; conditions: Klebsiella pneumoniae
[9] = ATCC 17978, antibiotic alone (Supplementary Table 7)
[10] = 18 h, PAO1, antibiotic alone (Supplementary Table 7)
[11] = ATCC 25922, antibiotic alone (Supplementary Table 7)

Row | SMILES | MICcombo ([1]; ATCC 17978) [µg/mL] | MIC [1, 9] [µg/mL] | MIC ([2]; 259-96196, read-out: MIC) [µg/mL] | MIC ([2]; 262-101856, read-out: MIC) [µg/mL] | MIC ([2]; 91433, read-out: MIC) [µg/mL] | MIC ([3]; 94393 (mcr-1 +)) [µg/mL] | MIC ([3]; 94474 (mcr-1 +)) [µg/mL] | MIC [3]; 107115 [µg/mL] | MICcombo ([4]; PAO1) [µg/mL] | MIC [4, 10] [µg/mL] | MIC [5]; 117029 [µg/mL] | MIC [5]; 118564 [µg/mL] | MIC [5]; 121187 [µg/mL] | MIC ([6]; LAC-4) [µg/mL] | MICcombo ([7]; ATCC 25922) [µg/mL] | MIC [7, 11] [µg/mL] | MIC ([8]; 113250, read-out: MIC) [µg/mL] | MIC ([8]; 113254, read-out: MIC) [µg/mL] | MIC ([8]; 116381, read-out: MIC) [µg/mL] | MIC ([2]; 264-104354, read-out: MIC) [µg/mL] | also measured
1 | NC[C@H]1O[C@H](O[C@H]2[C@H](O)[C@@H](O[C@H]3O[C@H](CO)[C@@H](O)[C@H](N)[C@H]3O)[C@H](N)C[C@@H]2N)[C@H](N)C[C@@H]1O [Tobramycin] | > 1 | > 1 | 256 (≈ 548 µM) | 1020 (≈ 2190 µM) | 16 (≈ 34.2 µM) | ≤ 0.5 | 32 (≈ 68.4 µM) | 8 (≈ 17.1 µM) | 1 | 1 (≈ 2.14 µM) | 2 (≈ 4.28 µM) | 1 (≈ 2.14 µM) | 32 (≈ 68.4 µM) | > 4 | 1 | 2 | ≤ 0.5 | ≤ 0.5 | 4 (≈ 8.56 µM) | – | MIC ([2]; 264-104354): 128 µg/mL (≈ 274 µM); MIC ([2]; 114228, read-out: MIC): 2 µg/mL (≈ 4.28 µM)
2 | COc1c(N2C[C@@H]3CCCN[C@@H]3C2)c(F)cc2c(=O)c(C(=O)O)cn(C3CC3)c12 [Moxifloxacin] | > 0.125 | > 0.125 | > 16 | > 16 | 16 (≈ 39.9 µM) | 1 (≈ 2.49 µM) | 16 (≈ 39.9 µM) | 16 (≈ 39.9 µM) | 0.5 | 2 (≈ 4.98 µM) | ≤ 0.06 | 0.12 (≈ 0.299 µM) | 1 (≈ 2.49 µM) | – | 0.001 | 0.016 | ≤ 0.06 | ≤ 0.06 | > 16 | > 16 | MIC [6]; 110193: ≤ 1 µg/mL; MIC ([6]; AB027): 8 µg/mL (≈ 19.9 µM); MIC ([6]; AB031): 0.12 µg/mL (≈ 0.299 µM)
3 | C[C@H]1c2cccc(O)c2C(=O)C2=C(O)[C@]3(O)C(=O)C(C(N)=O)=C(O)[C@@H](N(C)C)[C@@H]3[C@@H](O)[C@@H]21 [Doxycycline] | 0.25 | 0.25 | 32 (≈ 72 µM) | 1020 (≈ 2300 µM) | 32 (≈ 72 µM) | 4 (≈ 9 µM) | > 32 | > 32 | 0.5 | 8 (≈ 18 µM) | > 32 | 4 (≈ 9 µM) | > 32 | < 4 | 0.25 | 1 | 2 (≈ 4.5 µM) | 128 (≈ 288 µM) | 1 (≈ 2.25 µM) | 64 (≈ 144 µM) | MIC ([2]; 114228, read-out: MIC): 16 µg/mL (≈ 36 µM)
4 | O=C(N[C@H](CO)[C@H](O)c1ccc([N+](=O)[O-])cc1)C(Cl)Cl [Chloramphenicol] | 64 | 128 | – | 2050 (≈ 6340 µM) | 8 (≈ 24.8 µM) | 4 (≈ 12.4 µM) | 4 (≈ 12.4 µM) | 512 (≈ 1580 µM) | 2 | 32 (≈ 99 µM) | 8 (≈ 24.8 µM) | – | – | 32 (≈ 99 µM) | 1 | 2 | 4 (≈ 12.4 µM) | 2 (≈ 6.19 µM) | > 512 | 4100 (≈ 12700 µM) | MIC ([2]; 259-96196): 1020 µg/mL (≈ 3170 µM); MIC [6]; 110193: 128 µg/mL (≈ 396 µM); MIC ([6]; AB027): 128 µg/mL (≈ 396 µM); MIC ([6]; AB031): 128 µg/mL (≈ 396 µM)
5 | CC(C)(O/N=C(\C(=O)N[C@@H]1C(=O)N2C(C(=O)[O-])=C(C[n+]3ccccc3)CS[C@H]12)c1csc(N)n1)C(=O)O [Ceftazidime] | 8 | 16 | – | 16 (≈ 29.3 µM) | – | ≤ 0.25 | 0.5 (≈ 0.915 µM) | > 32 | 2 | 2 (≈ 3.66 µM) | 0.5 (≈ 0.915 µM) | 0.5 (≈ 0.915 µM) | 0.5 (≈ 0.915 µM) | > 16 | 0.063 | 0.25 | 0.5 (≈ 0.915 µM) | ≤ 0.2 | 8 (≈ 14.6 µM) | – | MIC ([2]; 259-96196): 512 µg/mL (≈ 937 µM); MIC ([2]; 264-104354): 128 µg/mL (≈ 234 µM); MIC [2]; 91433: 1020 µg/mL (≈ 1870 µM); MIC ([2]; 114228, read-out: MIC): 8 µg/mL (≈ 14.6 µM)
6 | C[C@H]1[C@H](NC(=O)/C(=N\OC(C)(C)C(=O)O)c2csc(N)n2)C(=O)N1S(=O)(=O)O [Aztreonam] | 32 | 64 | 32 (≈ 73.5 µM) | 32 (≈ 73.5 µM) | – | ≤ 0.12 | ≤ 0.12 | > 64 | 4 | 4 (≈ 9.19 µM) | ≤ 0.12 | ≤ 0.12 | ≤ 0.12 | – | 0.063 | 0.25 | ≤ 0.12 | ≤ 0.12 | 16 (≈ 36.7 µM) | 64 (≈ 147 µM) | MIC ([2]; 114228, read-out: MIC): 32 µg/mL (≈ 73.5 µM)
7 | CN[C@H](CC(C)C)C(=O)N[C@H]1C(=O)N[C@@H](CC(N)=O)C(=O)N[C@H]2C(=O)N[C@H]3C(=O)N[C@H](C(=O)N[C@H](C(=O)O)c4cc(O)cc(O)c4-c4cc3ccc4O)[C@H](O)c3ccc(c(Cl)c3)Oc3cc2cc(c3O[C@@H]2O[C@H](CO)[C@@H](O)[C@H](O)[C@H]2O[C@H]2C[C@](C)(N)[C@H](O)[C@H](C)O2)Oc2ccc(cc2Cl)[C@H]1O [Vancomycin] | 32 | – | – | – | – | – | – | – | 256 | – | – | – | – | – | 64 | – | – | – | – | – | MIC [1]: > 128 µg/mL; MIC ([4]; PAO1, 18 h): 256 µg/mL (≈ 177 µM); MIC [7]: 128 µg/mL
8 | COc1cc(Cc2cnc(N)nc2N)cc(OC)c1OC [Trimethoprim] | > 128 | > 128 | – | – | – | – | – | – | 32 | 128 (≈ 441 µM) | – | – | – | – | 64 | 512 | – | – | – | – | –
9 | C[C@H]1COc2c(N3CCN(C)CC3)c(F)cc3c(=O)c(C(=O)O)cn1c23 [Levofloxacin] | 0.25 | 0.25 | 256 (≈ 708 µM) | 64 (≈ 177 µM) | – | 1 (≈ 2.77 µM) | 32 (≈ 88.6 µM) | 32 (≈ 88.6 µM) | 0.25 | 0.5 (≈ 1.38 µM) | – | – | – | 2 (≈ 5.53 µM) | 0.002 | 0.008 | – | – | – | 64 (≈ 177 µM) | MIC [6]; 110193: ≤ 1 µg/mL; MIC ([6]; AB027): 8 µg/mL (≈ 22.1 µM); MIC ([6]; AB031): 0.25 µg/mL (≈ 0.692 µM); MIC [8]; 113250: 0.125 µg/mL (≈ 0.346 µM); MIC [8]; 113254: 0.0625 µg/mL (≈ 0.173 µM); MIC [8]; 116381: 128 µg/mL (≈ 354 µM)
10 | CCN1CCN(C(=O)N[C@@H](C(=O)N[C@@H]2C(=O)N3[C@@H]2SC(C)(C)[C@@H]3C(=O)O)c2ccccc2)C(=O)C1=O [Piperacillin] | 32 | > 128 | – | – | – | – | – | – | 4 | 4 (≈ 7.73 µM) | – | – | – | – | 0.125 | 2 | – | – | – | – | –
11 | C[C@@H]1O[C@@H]1P(=O)(O)O [Fosfomycin] | 256 | > 256 | – | – | – | – | – | – | 2 | 32 (≈ 232 µM) | – | – | – | – | 8 | 16 | – | – | – | – | –
12 | CC[C@H]1OC(=O)[C@H](C)[C@@H](O[C@H]2C[C@@](C)(OC)[C@@H](O)[C@H](C)O2)[C@H](C)[C@@H](O[C@@H]2O[C@H](C)C[C@H](N(C)C)[C@H]2O)[C@](C)(O)C[C@@H](C)C(=O)[C@H](C)[C@@H](O)[C@]1(C)O [Erythromycin] | 1 | 16 | – | – | – | – | – | – | – | 256 (≈ 349 µM) | – | – | – | – | 0.25 | 64 | – | – | – | – | –
